# Assay results from ChEMBL document CHEMBL1154558, “Cytotoxic prenylxanthones from Garcinia bracteata” (J Nat Prod, 2000).
# Legend:
# [1] = Inhibition of FTase by fluorimetry
# [2] = tested on: KB; experiment: Cytotoxicity against human KB cells by colorimetric assay; assay type: functional, cell-based
SMILES,Activity [1],IC50 [2]
COc1cc2c(c3c1C(=O)C1=C[C@@H]4C[C@H]5C(C)(C)O[C@](CC=C(C)C)(C4=O)[C@@]15O3)C(C)(C)[C@H](C)O2,> 10 µg/mL,0.8 µg/mL
C=CC(C)(C)c1c(O)cc(OC)c2c1O[C@@]13C[C@H]4[C@@H](C=C1C2=O)[C@](CC=C(C)C)(OC4(C)C)C3=O,–,0.2 µg/mL
C=CC(C)(C)c1c(O)cc(O)c2c1O[C@]13C(=C[C@@H]4C[C@H]1C(C)(C)O[C@@]3(CC=C(C)C)C4=O)C2=O [BRACTATIN],4.7 µg/mL,0.4 µg/mL
C=CC(C)(C)c1c(O)cc(OC)c2c1O[C@]13[C@@H](C2=O)[C@H](OC)[C@@H]2C[C@H]1C(C)(C)O[C@@]3(CC=C(C)C)C2=O,> 10 µg/mL,1.5 µg/mL
C=CC(C)(C)c1c(O)cc(OC)c2c1O[C@]13C(=C[C@@H]4C[C@H]1C(C)(C)O[C@@]3(CC=C(C)C)C4=O)C2=O,> 10 µg/mL,0.3 µg/mL
CC(C)=CC[C@@]12OC(C)(C)[C@@H]3C[C@@H](C=C4C(=O)c5c(O)cc(O)cc5O[C@]431)C2=O,–,0.8 µg/mL
CC(C)=CC[C@]12OC(C)(C)[C@@H]3C[C@@H](C=C4C(=O)c5c(O)cc6c(c5O[C@]431)C(C)(C)[C@H](C)O6)C2=O [ISOBRACTATIN],5.6 µg/mL,1.5 µg/mL
